In general, IC50 refers to the concentration that gives 50% inhibition.

Sequence of CBP (Q92793 1085-1192): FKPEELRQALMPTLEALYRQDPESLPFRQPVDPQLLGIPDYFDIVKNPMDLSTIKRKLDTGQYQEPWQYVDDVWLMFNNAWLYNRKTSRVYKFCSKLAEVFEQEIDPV

The experiment has as its target CBP (Homo sapiens (Human), UniProt Q92793). Description: HTRF biochemical assay for CBP activity (TR-FRET, bromodomain). The note with it: geometric mean, 10-point 3-fold dilution 33 μM to 1.7 nM, read-out: BROMO IC50 TRF TB CBP (μM gmean). Format: binding. The procedure, abridged: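 Compounds were tested as 10-point, 3-fold dilutions (33 μM to 1.7 nM final) against CBP protein and peptide ligand in pH 7.5 Hepes buffer with GSH, BGG, BSA and Triton X-100 at room temperature for varying times. The TR-FRET 520/490 ratio gave % inhibition versus no-enzyme and DMSO controls, and IC50 came from 4-parameter logistic fits.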
Background: Time-resolved FRET reads energy transfer from a long-lived donor to a nearby acceptor.
Regarding `COC(=O)N1CCc2ccc3c(nc([C@H]4CC[C@H](C(=O)O)CC4)n3[C@@H](C)C[C@@H]3CCCCO3)c2C1` [Compound 260], the IC50 is 0.01 to 0.1 µM.

Regarding `COC(=O)N1CCc2ccc3c(nc([C@H]4CCC[C@H](C(=O)O)C4)n3[C@@H](C)Cc3ccccc3)c2C1` [Compound 261], the 50% inhibitory concentration (IC50) was 0.01 to 0.1 µM.

With `COC(=O)N1CCc2ccc3c(nc([C@@H]4CCC[C@@H](C(=O)O)C4)n3C[C@H]3CC[C@H](OC)CC3)c2C1` [Compound 262], the IC50 is 0.01 to 0.1 µM.

Consider `COC(=O)N1CCc2ccc3c(nc([C@H]4CC[C@@H](C(=O)O)CC4)n3[C@@H](C)Cn3cc(Cl)cn3)c2C1` [Compound 264], for which the IC50 fell in the range of 0.01 to 0.1 µM.

For `COC(=O)N1CCc2ccc3c(nc([C@H]4CC[C@H](C(=O)O)CC4)n3[C@H](C)CC3CCOCC3)c2C1` [Compound 265], the IC50 was in the range of 0.01 to 0.1 µM.

For `COC(=O)N1CCc2ccc3c(nc([C@H]4CC[C@H](C(=O)O)CC4)n3[C@H](C)Cc3cccc(F)c3F)c2C1` [Compound 266], the IC50 lay within 0.01 to 0.1 µM.

Consider `COC(=O)N1CCc2ccc3c(nc([C@H]4CC[C@H](C(=O)O)CC4)n3[C@H](C)C[C@]3(C)CC[C@@H](OC)CC3)c2C1` [Compound 267], for which the IC50 was in the range of 0.01 to 0.1 µM.

Consider `COC(=O)N1CCc2ccc3c(nc([C@H]4CC[C@H](C(=O)O)CC4)n3[C@@H](C)[C@H](O)c3ccccc3)c2C1` [Compound 268], for which the IC50 lay within 0.01 to 0.1 µM.

As to `COC(=O)N1CCc2c(C#N)cc3c(nc([C@H]4CC[C@H](C(=O)O)CC4)n3[C@H](C)Cc3ccccc3)c2C1` [Compound 269], the IC50 fell in the range of 0.01 to 0.1 µM.

Take `COC(=O)N1CCc2ccc3c(nc([C@H]4CC[C@](C)(C(=O)O)CC4)n3[C@@H](CO)Cc3ccccc3)c2C1` [Compound 270]: the IC50 fell in the range of 0.01 to 0.1 µM.

In the case of `COC(=O)N1CCc2ccc3c(nc([C@H]4CC[C@H](C(=O)O)CC4)n3C3(Cc4ccccc4)COC3)c2C1` [Compound 271], the IC50 was in the range of 0.01 to 0.1 µM.

On to `COC(=O)N1CCc2ccc3c(nc([C@@H]4CCC[C@@H](C(=O)O)C4)n3Cc3cccc(OC)n3)c2C1` [Compound 272], for which the IC50 was 0.01 to 0.1 µM.

Consider `COC(=O)N1CCc2ccc3c(nc(Cc4cc(O)no4)n3[C@H](C)Cc3ccccc3)c2C1` [Compound 273], for which the IC50 fell in the range of 0.01 to 0.1 µM.

In the case of `COC(=O)N1CCc2ccc3c(nc(C4CCCCC4)n3[C@@H](C)C[C@H]3CC[C@@H](C(=O)O)CC3)c2C1` [Compound 274], the IC50 lay within 0.01 to 0.1 µM.

As for `COC(=O)N1CCc2ccc3c(nc([C@H]4CC[C@H](C(=O)O)CC4)n3[C@H](C)C[C@H]3CCCOC3)c2C1` [Compound 275], the IC50 was 0.01 to 0.1 µM.

As for `COC(=O)N1CCc2ccc3c(nc([C@H]4CC[C@H](C(=O)O)CC4)n3[C@H](C)[C@H](O)c3ccccc3)c2C1` [Compound 276], the IC50 was in the range of 0.01 to 0.1 µM.

In the case of `COC(=O)N1CCc2ccc3c(nc([C@H]4CCC[C@H](C(=O)O)C4)n3Cc3cccc(OC)n3)c2C1` [Compound 277], the IC50 lay within 0.01 to 0.1 µM.

On to `COC(=O)N1CCc2ccc3c(nc(-c4ccc(C(=O)O)cc4)n3[C@H](C)Cc3ccccc3)c2C1` [Compound 279], for which the IC50 was 0.01 to 0.1 µM.

As for `COC(=O)N1CCc2ccc3c(nc(-c4ccc(C(=O)O)c(F)c4)n3[C@H](C)Cc3ccccc3)c2C1` [Compound 280], the IC50 is 0.01 to 0.1 µM.

On to `COC(=O)N1CCc2ccc3c(nc(C4CCCCC4)n3C[C@@H](C(=O)O)C3CCCCC3)c2C1` [Compound 281], for which the IC50 was in the range of 0.01 to 0.1 µM.

Regarding `COC(=O)N1Cc2c(ccc3c2nc(C2CCCCC2)n3Cc2ccccc2)C[C@H]1C` [Compound 282], the IC50 was in the range of 0.01 to 0.1 µM.

With `COC(=O)N1CCc2ccc3c(nc(N4CCC(C(=O)O)CC4)n3[C@H](C)Cn3cc(C(F)(F)F)cn3)c2C1` [Compound 285], the IC50 lay in the range of 0.01 to 0.1 µM.

With `COC(=O)N1CCc2ccc3c(nc([C@H]4CC[C@H](C(=O)O)CC4)n3[C@H](C)Cc3ccc(F)c(OC)c3)c2C1` [Compound 286], the IC50 is 0.01 to 0.1 µM.

In the case of `COC(=O)N1CCc2ccc3c(nc([C@H]4CC[C@H](C(=O)O)CC4)n3[C@H](C)C[C@H]3CC[C@H](OC)CC3)c2C1` [Compound 287], the IC50 lay within 0.01 to 0.1 µM.

With `COC(=O)N1CCc2ccc3c(nc([C@H]4CC[C@H](C(=O)O)CC4)n3[C@H](CO)Cc3ccc(F)c(F)c3)c2C1` [Compound 288], the IC50 is 0.01 to 0.1 µM.

As to `COC(=O)N1CCc2ccc3c(nc([C@H]4CC[C@H](C(=O)O)CC4)n3[C@@H](C)Cc3c(F)cccc3F)c2C1` [Compound 289], the IC50 is 0.01 to 0.1 µM.

As for `COC(=O)N1CCc2ccc3c(nc([C@H]4CC[C@@H](C(=O)O)CC4)n3CCn3cc(Cl)cn3)c2C1` [Compound 291], the IC50 is 0.1 to 1 µM.

For `COC(=O)N1CCc2ccc3c(nc([C@H]4CC[C@H](C(=O)O)CC4)n3C(=O)N(C)c3ccccc3)c2C1` [Compound 292], the IC50 lay in the range of 0.1 to 1 µM.

Regarding `COC(=O)N1CCc2ccc3c(nc([C@@H]4CCC[C@@H](C(=O)O)C4)n3Cc3cncc(Cl)n3)c2C1` [Compound 293], the IC50 was 0.1 to 1 µM.

Take `COC(=O)N1CCc2ccc3c(nc(C4CCCCC4)n3[C@H](C)Cc3cccc(C(=O)O)c3)c2C1` [Compound 294]: the IC50 lay in the range of 0.1 to 1 µM.

Consider `COC(=O)N1CCc2ccc3c(nc([C@H]4CC[C@H](C(=O)O)CC4)n3[C@H](C)Cc3ccccc3Cl)c2C1` [Compound 295], for which the half-maximal inhibitory concentration (IC50) fell in the range of 0.1 to 1 µM.

Consider `COC(=O)N1CCc2ccc3c(nc([C@H]4CC[C@H](C(=O)O)CC4)n3[C@@H](C)C[C@H]3CCCOC3)c2C1` [Compound 296], for which the IC50 is 0.1 to 1 µM.

Regarding `COC(=O)N1CCc2ccc3c(nc([C@H]4CC[C@H](C(=O)O)CC4)n3[C@H](C)Cc3ccccc3Cl)c2C1` [Compound 297], the IC50 fell in the range of 0.1 to 1 µM.

Consider `COC[C@H](Cc1ccccc1)n1c2ccc3c(c2nc1[C@H]1CC[C@H](C(=O)O)CC1)CN(C(=O)OC)CC3` [Compound 299], for which the concentration for half-maximal inhibition (IC50) was in the range of 0.1 to 1 µM.

In the case of `COC(=O)N1CCc2c(C(=O)O)cc3c(nc(C4CCCCC4)n3[C@H](C)Cc3ccccc3)c2C1` [Compound 300], the half-maximal inhibitory concentration (IC50) lay in the range of 0.1 to 1 µM.

For `COC(=O)N1CCc2ccc3c(nc([C@H]4CC[C@H](S(N)(=O)=O)CC4)n3[C@H](C)Cc3ccccc3)c2C1` [Compound 301], the IC50 fell in the range of 0.1 to 1 µM.

With `COC(=O)N1CCc2ccc3c(nc([C@H]4CC[C@H](C(=O)O)CC4)n3[C@H](C)C[C@@H]3CCCCO3)c2C1` [Compound 302], the IC50 lay within 0.1 to 1 µM.

Consider `COC(=O)N1CCc2ccc3c(nc(-c4ccccn4)n3[C@H](C)Cc3ccccc3)c2C1` [Compound 304], for which the IC50 lay in the range of 0.1 to 1 µM.

For `COC(=O)N1CCc2c(Cl)cc3c(nc([C@H]4CC[C@H](C(=O)O)CC4)n3[C@H](C)Cc3ccccc3)c2C1` [Compound 305], the IC50 lay within 0.1 to 1 µM.

Take `COC(=O)N1CCc2ccc3c(nc(N4CCC[C@H](C(=O)O)C4)n3C[C@H](C)c3ccccc3)c2C1` [Compound 306]: the IC50 lay in the range of 0.1 to 1 µM.

With `COC(=O)N1CCc2ccc3c(nc(N4CCC(C(=O)O)CC4)n3[C@H](C)Cc3cc(F)cc(F)c3)c2C1` [Compound 308], the IC50 is 0.1 to 1 µM.

`COC(=O)N1CCc2ccc3c(nc([C@H]4CC[C@](C)(C(=O)O)CC4)n3[C@H](C)Cn3cc(Cl)cn3)c2C1` [Compound 309]: the IC50 lay in the range of 0.1 to 1 µM.

Regarding `COC(=O)N1CCc2ccc3c(nc([C@H]4CC[C@@H](S(N)(=O)=O)CC4)n3[C@H](C)Cc3ccccc3)c2C1` [Compound 310], the IC50 fell in the range of 0.1 to 1 µM.

As to `COC(=O)N1CCc2ccc3c(nc([C@H]4CC[C@H](C(=O)O)CC4)n3[C@H](C)Cn3ncc4ccccc43)c2C1` [Compound 311], the IC50 lay in the range of 0.1 to 1 µM.

In the case of `COC(=O)N1CCc2ccc3c(nc([C@H]4CC[C@H](C(=O)O)CC4)n3[C@H](C)Cc3ccccc3)c2C1` [Compound 312], the IC50 lay in the range of 0.1 to 1 µM.

Take `COC(=O)N1CCc2ccc3c(nc(N4CCC(C(=O)CO)CC4)n3[C@H](C)Cc3ccccc3)c2C1` [Compound 313]: the IC50 was in the range of 0.1 to 1 µM.

Take `COC(=O)N1CCc2ccc3c(nc([C@H]4CC[C@H](C(=O)O)CC4)n3[C@@H](C)Cc3ccccc3F)c2C1` [Compound 314]: the IC50 lay within 0.1 to 1 µM.

Regarding `COC(=O)N1CCc2ccc3c(nc([C@H]4CC[C@H](C(=O)O)CC4)n3[C@H]3CCc4ccccc4C3)c2C1` [Compound 315], the IC50 is 0.1 to 1 µM.

Take `COC(=O)N1CCc2ccc3c(nc([C@H]4CC[C@H](S(=O)(=O)NC(C)=O)CC4)n3[C@H](C)Cc3ccccc3)c2C1` [Compound 316]: the IC50 lay within 0.1 to 1 µM.

On to `COC(=O)N1CCc2ccc3c(nc([C@H]4CC[C@H](C(=O)O)CC4)n3[C@H](C)C[C@H]3CC[C@H](OC(F)(F)F)CC3)c2C1` [Compound 317], for which the IC50 lay within 0.1 to 1 µM.

In the case of `COC(=O)N1CCc2ccc3c(nc([C@H]4CC[C@H](C(=O)O)CC4)n3[C@H](C)Cc3c(C)cccc3C)c2C1` [Compound 318], the IC50 lay within 0.1 to 1 µM.

As to `COC(=O)N1CCc2ccc3c(nc(C4CCN(S(C)(=O)=O)CC4)n3[C@H](C)Cc3ccccc3)c2C1` [Compound 319], the IC50 lay in the range of 0.1 to 1 µM.

For the molecule `COC(=O)N1CCc2ccc3c(nc(-c4cccc(C(C)(C)C(=O)O)c4)n3[C@H](C)Cn3cc(Cl)cn3)c2C1` [Compound 320], the IC50 was in the range of 0.1 to 1 µM.

Take `COC(=O)N1CCc2ccc3c(nc(-c4ccc(C(=O)O)c(OC)c4)n3[C@H](C)Cc3ccccc3)c2C1` [Compound 321]: the IC50 was in the range of 0.1 to 1 µM.

As for `COC(=O)N1CCc2ccc3c(nc(-c4cccc(CC(=O)O)c4)n3[C@H](C)Cc3cc(F)cc(F)c3)c2C1` [Compound 322], the IC50 was 0.1 to 1 µM.

In the case of `COC(=O)N1CCc2ccc3c(nc(C4CCN(C(C)=O)CC4)n3[C@@H](C)Cc3ccccc3)c2C1` [Compound 323], the IC50 lay in the range of 0.1 to 1 µM.

Consider `COC(=O)N1CCc2ccc3c(nc(N4CCN(C(C)=O)CC4)n3[C@@H](C)Cc3ccccc3)c2C1` [Compound 324], for which the IC50 lay in the range of 0.1 to 1 µM.

As for `COC(=O)N1CCc2ccc3c(nc(-c4ccncc4)n3[C@H](C)Cc3ccccc3)c2C1` [Compound 326], the IC50 is 0.1 to 1 µM.

Take `COC(=O)N1CCc2ccc3c(nc(-c4ccc(C(C)(C)C(=O)O)cc4)n3[C@H](C)Cn3cc(Cl)cn3)c2C1` [Compound 327]: the IC50 was 0.1 to 1 µM.

The values are drawn from patent US20250188079A1, “INHIBITING CYCLIC AMP-RESPONSIVE ELEMENT-BINDING PROTEIN (CREB)” (Forma Therapeutics, Inc., priority 2019, published 2025).
